{"source": "patent US20100222439A1", "about": "“BEVERAGE CONTAINING A POLYMERIC POLYPHENOL” (CONOPCO, INC., D/B/A UNILEVER, priority 2009, published 2010)", "test": "Theaflavins feeding model (optical density)", "format": "physicochemical", "method": "A 3 mg/mL aqueous solution of theaflavins was prepared at 80 degrees Celsius. 0.625 mg/mL aqueous solutions of whey protein isolate and iota carrageenan were prepared and all three solutions combined to yield a solution with 1.5 mg/mL theaflavins, 0.156 mg/mL whey protein isolate and 0.156 mg/mL iota carrageenan. The following feeding programme was used with the 3 mg/mL aqueous solution of theaflavins being either at ambient temperature (reference “Procedure B”) or at 80 degrees Celsius (reference “Procedure A”) when combined with the ambient temperature 0.625 mg/mL aqueous solutions of whey protein isolate and iota carrageenan:\nTF+WPI/IC: 25 mL whey protein isolate solution and 25 mL iota carrageenan solution are premixed and added to 50 mL theaflavins solution. TF+IC: 25 mL iota carrageenan solution is added to 50 mL of theaflavins solution and 25 mL of deionised water added. TF+WPI: 25 mL whey protein isolate solution is added to 50 mL of theaflavins solution and 25 mL of deionised water added. TFWPI+IC: 25 mL whey protein isolate solution is added to 50 mL theaflavins solution, and then 25 mL iota carrageenan solution is added after 10 minutes. […]\nAll the samples were stored at 4 degrees Celsius for 24 hours in order to equilibrate the tea creaming process before measurement of turbidity at 600 nm with a Safire2™ microplate reader (Tecan Group Ltd.)."}
{"substance": "Iota carrageenan", "values": [{"measurement": "Effect on solubility of theaflavin", "value": "decreases the solubility of theaflavin"}]}
